These results are taken from patent US10925858B2, “S-nitrosoglutathione (GSNO) and GSNO reductase inhibitors for use in therapy” (MUSC FOUNDATION FOR RESEARCH DEVELOPMENT, priority 2017, dated 2021).

One assay has as its system myelin. Kind of assay: Myelin status in spinal cords of EAE mice (immunofluorescent staining for MBP, Western for MBP and PLP). The assay is classed as in vivo, C57BL/6 mice. The note with it: 1 mg/kg/day, N6022 vs FTY720. The protocol:
Female C57BL/6 mice of 8-12 weeks of age, purchased from Jackson Laboratory, were provided with food and water ad libitum and were kept in pathogen free animal care facility of Medical University of South Carolina (MUSC) throughout the study. All procedures were conducted in accordance with accepted standards of humane care as approved by the Institutional Animal Care and Use Committee (Approved number: AR #1644). EAE was induced as described previously (Nath et al., 2009). Briefly, mice were immunized subcutaneously in the flank regions with MOG35-55 peptide (MOG; 200 μg; Peptide International) emulsified (1:1) in 100 ul complete Freund's adjuvant (CFA) on day 0 and day 7. Additionally, 300 ng of Pertussis toxin (Sigma-Aldrich, St. Louis, Mo.) was given on day 0 and day 2 by i.p. injection. […] Clinical signs of EAE were scored by examiners blinded to experimental treatments using the following scale: 0=no clinical signs of disease; 1=piloerection and sluggish; 2=limp tail (ataxia); 2.5=ataxia with partial hind limb paralysis; 3=full paralysis of hind limb; 3.5=full paralysis of hind limb with paralysis of one fore limb; 4=full paralysis of two limbs; 4.5=moribund stage; 5=death. […]
Tissue samples were embedded in paraffin block and sectioned transversely (5 μm-thick). […] For the quantitation of infiltrates, the digital images were analyzed by ImageJ (NIH, Bethesda, Md.). […]

The test system of another assay is hBMVECs. Kind of assay: Assay for F-actin stress fiber development in thrombin treated hBMVECs. Type of assay: cell-based, human. The note with it: thrombin 0.1 unit/ml 30 min; GSNO 100 μM or SIN-1 100 μM pretreated 2 hr. How it is done: Cell culture: Primary human brain microvascular endothelial cells (hBMVECs) were purchased from Angio-Proteomie (Cat #: cAP-0002, Atlanta, Ga.). The cells were cultured in cell culture flasks or plates precoated with Quick Coating Solution (Angio-Proteomie; Cat #: cAP-01) and maintained in Endothelial Growth Medium (Angio-Proteomie; Cat #: cAP-02) at 37° C. under 5% CO2/95% air. When the cells were almost confluent, the medium was replaced with endothelial basal medium (Angio-Proteomie; Cat #: cAP-03) containing 0.5% fetal bovine serum (FBS; Life Technologies, Grand Island, N.Y.) about 8-12 hours before the experiment. No institutional approval was required for this study. The study was not pre-registered.
Assay for F-actin stress fiber development and endothelial cell contraction: hBMVECs were cultured on fibronectin-coated chamber slides (BD Bioscience). Following drug treatments, the cells were fixed with 4% (wt/vol) paraformaldehyde, permeabilized by the addition of 0.25% Triton X-100, and blocked by 2% bovine serum albumin (BSA) in phosphate buffered saline (PBS). […] The density of fluorescence was analyzed by ImageJ (NIH, Bethesda, Md.).

`Cc1cc(C(N)=O)ccc1-n1c(CCC(=O)O)ccc1-c1ccc(-n2ccnc2)cc1` [N6022, reference compound]: the “protection against myelin loss in the spinal cords” value in the assay on myelin was “protects against the myelin loss in the spinal cords of EAE mice greater than FTY720 treatment”. `N[C@@H](CCC(=O)N[C@@H](CSN=O)C(=O)NCC(=O)O)C(=O)O` [GSNO, S-nitrosoglutathione]: the “thrombin-induced development of F-actin stress fiber formation” value in the assay with hBMVECs was “inhibited”.
